This note sets out measurements from PMC10223470 (Molecules, 2023).

Common to all, as to assay type: in vivo
In series [1] the test system is mice. The experiment in a line: Amphetamine-induced hyperactivity in mice. Particulars: amphetamine 3 mg/kg s.c.; for effect on amphetamine-induced hyperactivity after 10 min / effect on amphetamine-induced hyperactivity after 30 min: p < 0.05 vs amphetamine group. How it is done: (§1) The experiments were carried out on 6 weeks old naive Swiss male mice (Experimental Medicine Center (OMD), Lublin, Poland), weighing 28–30 g. The cages with mice were located in air-conditioned rooms maintaining the ambient temperature within the range of 23–25 °C. The animals were provided with a natural 12 h day/night cycle, replicating the day and night mode. Each testing group was represented by 8–10 animals, depending on the research schedule. All experiments were conducted according to the National Institute of Health Guidelines for the Care and Use of Laboratory Animals (8th edition) and to the European Community Council Directive for the Care and Use of Laboratory Animals of 22 September 2010 (2010/63/EU) and were approved by the Local Ethical Committee (number of ethical approval: 147/2018).
(§2) Compound 17 (25, 50, 75 mg/kg) was suspended in 1% Tween 80 in saline solution and was administered intraperitoneally (i.p.) 60 min before the test. Diazepam (DZ, Relanium, Polfa, Poland) at a dose of 1 mg/kg was diluted in 0.9% saline containing 1% Tween 80 and was administered subcutaneously (s.c.), 60 min before the test. Imipramine hydrochloride (30 mg/kg, Sigma-Aldrich was administered intraperitoneally (i.p.) 60 min before the test. D-amphetamine sulfate (3 mg/kg; Sigma-Aldrich, USA) was given subcutaneously (s.c.). Prior to administration, the agent was dissolved in saline and injected 30 min before the test. Control animals received an (i.p.) or (s.c.) injection of a respective vehicle. All compounds were injected in a manner generally accepted in experimental pharmacology, in an amount of 10 mL/kg body weight.
(§3) The measurement of the spontaneous locomotor activity was carried out using the OptoVarimex 4 Auto-Track device (Columbus Instruments, Columbus, OH, USA). Tested animals are kept in cages for 30 min. Their activity was recorded as interruptions of the light beams after 10 and 30 min of the test, and it was calculated automatically as a traveled distance in cm (±SEM). To determine whether compound 17 has an influence on amphetamine-induced hyperactivity, each mouse received 17 (25, 50 and 75 mg/kg; i.p.) and amphetamine (3 mg/kg; s.c.) 30 min after injection of 17 or vehicle and then spontaneous locomotor activity was measured.

Series [2] deals with mice. Briefly: Spontaneous locomotor activity in mice. Particulars: for Distance Traveled after 10 min / Distance Traveled after 30 min: mean ± SEM, n=10. How it is done: as §1, §2, §3
For series [3], the system named is mice. The experiment in a line: Elevated plus-maze (EPM) test. Particulars: 25, 50 and 75 mg/kg i.p., 60 min before the test. The procedure: as §1, §2
The experiment was carried out on mice according to the method of Lister. […] The number of entries into the open arms and the time spent in these arms were scored for a 5-min test period. […] The following measures were obtained from the test: the total number of arm entries, the percentage of entries into the open arms, the time spent in the open arms expressed as a percentage of the time spent in both the open and closed arms. […]

Series [4] concerns mice. The experiment in a line: Motor coordination, rotarod test. Particulars: 25, 50 and 75 mg/kg i.p., 60 min before testing. The procedure:
as §1, with “147/2018). Compound 17 (25, 50, 75 mg/kg) was suspended in 1% Tween 80 in saline solution and was administered intraperitoneally (i.p.) 60 min before the test. […] Imipramine hydrochloride (30 mg/kg, Sigma-Aldrich was administered intraperitoneally (i.p.) 60 min before the test. […] Sigma-Aldrich, USA) was given subcutaneously (s.c.). Prior to administration, the agent was dissolved in saline and injected 30 min before the test. […] Motor coordination has been assessed in mice using the chimney test and the rotarod test, according to the procedure we had used before. […]” for “147/2018).”
For orientation: Falling from the rotarod earlier than controls is read as motor impairment.

The mark [5] stands for this setting: 25 mg/kg i.p. 60 min before the test.
The mark [6] stands for this setting: 50 mg/kg i.p. 60 min before the test.
Setting [7] is: 75 mg/kg i.p. 60 min before the test.

Take `O=C(CCN1C(=O)CSc2ccccc21)Nc1ccc(Cl)cc1` [Compound 17, N-(4-Chlorophenyl)-3-(3-oxo-2,3-dihydro-4H-benzo[b][1,4]thiazin-4-yl)propanamide]: the “effect on amphetamine-induced hyperactivity” value in series [1] (25 mg/kg i.p.) was “inactive”. For the same compound, in series [1] (50 mg/kg i.p.), the “effect on amphetamine-induced hyperactivity after 10 min” value is given as “decreased” and the “effect on amphetamine-induced hyperactivity after 30 min” value is on record as “decreased”. Further, in series [1] (75 mg/kg i.p.), the “effect on amphetamine-induced hyperactivity after 10 min” value was “decreased” and the “effect on amphetamine-induced hyperactivity after 30 min” value is given as “decreased”. Further, in series [2] (setting [5]), the “Distance Traveled after 10 min” value is reported as 910.1 ± 139.3 cm and the “Distance Traveled after 30 min” value came out at 2003 ± 355.7 cm. In series [2] (setting [6]), the “Distance Traveled after 10 min” value is 855.9 ± 195.1 cm and the “Distance Traveled after 30 min” value is listed as 2345 ± 616.0 cm. In series [2] (setting [7]), the “Distance Traveled after 10 min” value was determined as 1200 ± 216.0 cm and the “Distance Traveled after 30 min” value is 2983 ± 595.8 cm. Further, the “effect on locomotor activity versus the control group” value in series [2] (25, 50 and 75 mg/kg i.p., after 10 min and after 30 min) is given as “no statistically significant effects”. In series [3], the “percentage of entries into open arms” value was “did not change” and the “percentage of the time spent in open arms” value is “did not change”. In addition, the “effect on behavior in the rotarod test” value in series [4] is “did not influence mice behavior”.
